Results: PubChem BioAssay (NCI)
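Cultured in 96-well plates, cells were exposed to test compound for 48 hours across five concentrations. Here, GI50 denotes the concentration required for 50% inhibition of growth. TGI marks complete inhibition of growth.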

Experiments:
Assay in all cases: inhibition of tumour cell growth, NCI panel, 48 h
786-0 renal = test system: 786-0 renal
A498 renal = test system: A498 renal
A549 NSCLC = test system: A549 NSCLC
ACHN renal = test system: ACHN renal
BT-549 breast = test system: BT-549 breast
CAKI-1 renal = test system: CAKI-1 renal
CCRF-CEM leukemia = test system: CCRF-CEM leukemia
COLO 205 colon = test system: COLO 205 colon
DU-145 prostate = test system: DU-145 prostate
EKVX NSCLC = test system: EKVX NSCLC
HCC-2998 colon = test system: HCC-2998 colon
HCT-116 colon = test system: HCT-116 colon
HCT-15 colon = test system: HCT-15 colon
HL-60(TB) leukemia = test system: HL-60(TB) leukemia
HOP-62 NSCLC = test system: HOP-62 NSCLC
HOP-92 NSCLC = test system: HOP-92 NSCLC
HS 578T breast = test system: HS 578T breast
HT29 colon = test system: HT29 colon
IGROV1 ovarian = test system: IGROV1 ovarian
K-562 leukemia = test system: K-562 leukemia
KM12 colon = test system: KM12 colon
LOX IMVI melanoma = test system: LOX IMVI melanoma
M14 melanoma = test system: M14 melanoma
MALME-3M melanoma = test system: MALME-3M melanoma
MCF7 breast = test system: MCF7 breast
MDA-MB-231 breast = test system: MDA-MB-231 breast
MDA-MB-435 = test system: MDA-MB-435
MOLT-4 leukemia = test system: MOLT-4 leukemia
NCI-H226 lung = test system: NCI-H226 lung
NCI-H23 lung = test system: NCI-H23 lung
NCI-H460 lung = test system: NCI-H460 lung
NCI-H522 lung = test system: NCI-H522 lung
NCI/ADR-RES ovarian = test system: NCI/ADR-RES ovarian
OVCAR-3 ovarian = test system: OVCAR-3 ovarian
OVCAR-4 ovarian = test system: OVCAR-4 ovarian
OVCAR-5 ovarian = test system: OVCAR-5 ovarian
OVCAR-8 ovarian = test system: OVCAR-8 ovarian
PC-3 prostate = test system: PC-3 prostate
RPMI-8226 leukemia = test system: RPMI-8226 leukemia
RXF 393 renal = test system: RXF 393 renal
SF-268 CNS = test system: SF-268 CNS
SF-295 CNS = test system: SF-295 CNS
SF-539 CNS = test system: SF-539 CNS
SK-MEL-2 melanoma = test system: SK-MEL-2 melanoma
SK-MEL-28 melanoma = test system: SK-MEL-28 melanoma
SK-MEL-5 melanoma = test system: SK-MEL-5 melanoma
SK-OV-3 ovarian = test system: SK-OV-3 ovarian
SN12C renal = test system: SN12C renal
SNB-19 CNS = test system: SNB-19 CNS
SNB-75 CNS = test system: SNB-75 CNS
SR leukemia = test system: SR leukemia
SW-620 colon = test system: SW-620 colon
T-47D breast = test system: T-47D breast
TK-10 renal = test system: TK-10 renal
U251 CNS = test system: U251 CNS
UACC-62 melanoma = test system: UACC-62 melanoma
UO-31 renal = test system: UO-31 renal
MDA-N = test system: MDA-N
UACC-257 melanoma = test system: UACC-257 melanoma

CSc1nc2c(c(=O)[nH]1)N=C1c3ccccc3C(=O)C1C(c1ccccc1)N2 (configuration not stated)
GI50 (786-0 renal): 6.44 µM
TGI (786-0 renal): > 100 µM
GI50 (A498 renal): 2 µM
TGI (A498 renal): 38 µM
GI50 (A549 NSCLC): 6.98 µM
TGI (A549 NSCLC): > 100 µM
GI50 (ACHN renal): 3.73 µM
TGI (ACHN renal): > 100 µM
GI50 (BT-549 breast): 5.35 µM
TGI (BT-549 breast): > 100 µM
GI50 (CAKI-1 renal): 2.18 µM
TGI (CAKI-1 renal): > 100 µM
GI50 (CCRF-CEM leukemia): 6.92 µM
TGI (CCRF-CEM leukemia): > 100 µM
GI50 (COLO 205 colon): 3.53 µM
TGI (COLO 205 colon): > 100 µM
GI50 (DU-145 prostate): 13.4 µM
TGI (DU-145 prostate): > 100 µM
GI50 (EKVX NSCLC): 12.8 µM
TGI (EKVX NSCLC): > 100 µM
GI50 (HCC-2998 colon): 6.75 µM
TGI (HCC-2998 colon): > 100 µM
GI50 (HCT-116 colon): 4.21 µM
TGI (HCT-116 colon): > 100 µM
GI50 (HCT-15 colon): 2.8 µM
TGI (HCT-15 colon): > 100 µM
GI50 (HL-60(TB) leukemia): 2.51 µM
TGI (HL-60(TB) leukemia): > 100 µM
GI50 (HOP-62 NSCLC): 5.37 µM
TGI (HOP-62 NSCLC): > 100 µM
GI50 (HOP-92 NSCLC): 12 µM
TGI (HOP-92 NSCLC): > 100 µM
GI50 (HS 578T breast): 2.1 µM
TGI (HS 578T breast): 7.18 µM
GI50 (HT29 colon): 2.97 µM
TGI (HT29 colon): > 100 µM
GI50 (IGROV1 ovarian): 4.54 µM
TGI (IGROV1 ovarian): > 100 µM
GI50 (K-562 leukemia): 1.27 µM
TGI (K-562 leukemia): > 100 µM
GI50 (KM12 colon): 2.27 µM
TGI (KM12 colon): 37.5 µM
GI50 (LOX IMVI melanoma): 5.65 µM
TGI (LOX IMVI melanoma): > 100 µM
GI50 (M14 melanoma): 3.29 µM
TGI (M14 melanoma): > 100 µM
GI50 (MALME-3M melanoma): 2.33 µM
TGI (MALME-3M melanoma): > 100 µM
GI50 (MCF7 breast): 2.4 µM
TGI (MCF7 breast): > 100 µM
GI50 (MDA-MB-231 breast): 4.09 µM
TGI (MDA-MB-231 breast): > 100 µM
GI50 (MDA-MB-435): 0.494 µM
TGI (MDA-MB-435): 6.91 µM
GI50 (MOLT-4 leukemia): 5.24 µM
TGI (MOLT-4 leukemia): > 100 µM
GI50 (NCI-H226 lung): 4.2 µM
TGI (NCI-H226 lung): > 100 µM
GI50 (NCI-H23 lung): 5.82 µM
TGI (NCI-H23 lung): > 100 µM
GI50 (NCI-H460 lung): 3.16 µM
TGI (NCI-H460 lung): 38.1 µM
GI50 (NCI-H522 lung): 1.41 µM
TGI (NCI-H522 lung): 30.4 µM
GI50 (NCI/ADR-RES ovarian): 4.54 µM
TGI (NCI/ADR-RES ovarian): 32.1 µM
GI50 (OVCAR-3 ovarian): 2.12 µM
TGI (OVCAR-3 ovarian): 5.67 µM
GI50 (OVCAR-4 ovarian): 5.62 µM
TGI (OVCAR-4 ovarian): > 100 µM
GI50 (OVCAR-5 ovarian): 63.4 µM
TGI (OVCAR-5 ovarian): > 100 µM
GI50 (OVCAR-8 ovarian): 19.1 µM
TGI (OVCAR-8 ovarian): > 100 µM
GI50 (PC-3 prostate): 3.64 µM
TGI (PC-3 prostate): > 100 µM
GI50 (RPMI-8226 leukemia): 3.01 µM
TGI (RPMI-8226 leukemia): > 100 µM
GI50 (RXF 393 renal): 22 µM
TGI (RXF 393 renal): > 100 µM
GI50 (SF-268 CNS): 4.55 µM
TGI (SF-268 CNS): > 100 µM
GI50 (SF-295 CNS): 1.91 µM
TGI (SF-295 CNS): > 100 µM
GI50 (SF-539 CNS): 2.84 µM
TGI (SF-539 CNS): 17.9 µM
GI50 (SK-MEL-2 melanoma): 9.02 µM
TGI (SK-MEL-2 melanoma): > 100 µM
GI50 (SK-MEL-28 melanoma): 3.73 µM
TGI (SK-MEL-28 melanoma): > 100 µM
GI50 (SK-MEL-5 melanoma): 1.5 µM
TGI (SK-MEL-5 melanoma): 67.2 µM
GI50 (SK-OV-3 ovarian): 7.65 µM
TGI (SK-OV-3 ovarian): > 100 µM
GI50 (SN12C renal): 6.39 µM
TGI (SN12C renal): > 100 µM
GI50 (SNB-19 CNS): > 100 µM
TGI (SNB-19 CNS): > 100 µM
GI50 (SNB-75 CNS): 1.27 µM
TGI (SNB-75 CNS): 8.78 µM
GI50 (SR leukemia): 1.51 µM
TGI (SR leukemia): > 100 µM
GI50 (SW-620 colon): 2.92 µM
TGI (SW-620 colon): > 100 µM
GI50 (T-47D breast): 4.6 µM
TGI (T-47D breast): > 100 µM
GI50 (TK-10 renal): 73.6 µM
TGI (TK-10 renal): > 100 µM
GI50 (U251 CNS): 3.52 µM
TGI (U251 CNS): > 100 µM
GI50 (UACC-62 melanoma): 2.14 µM
TGI (UACC-62 melanoma): > 100 µM
GI50 (UO-31 renal): 5.23 µM
TGI (UO-31 renal): > 100 µM

NNC(=O)Nc1cccnc1
TGI (786-0 renal): > 100 µM
TGI (A498 renal): > 100 µM
TGI (A549 NSCLC): > 100 µM
TGI (ACHN renal): > 100 µM
TGI (CAKI-1 renal): > 100 µM
TGI (CCRF-CEM leukemia): > 100 µM
TGI (COLO 205 colon): > 100 µM
TGI (DU-145 prostate): > 100 µM
TGI (EKVX NSCLC): > 100 µM
TGI (HCC-2998 colon): > 100 µM
TGI (HCT-116 colon): > 100 µM
TGI (HCT-15 colon): > 100 µM
TGI (HL-60(TB) leukemia): > 100 µM
TGI (HOP-62 NSCLC): > 100 µM
TGI (HOP-92 NSCLC): > 100 µM
TGI (HT29 colon): > 100 µM
TGI (IGROV1 ovarian): > 100 µM
TGI (K-562 leukemia): > 100 µM
TGI (KM12 colon): > 100 µM
TGI (LOX IMVI melanoma): > 100 µM
TGI (M14 melanoma): > 100 µM
TGI (MALME-3M melanoma): > 100 µM
TGI (MCF7 breast): > 100 µM
TGI (MDA-MB-231 breast): > 100 µM
TGI (MDA-MB-435): > 100 µM
TGI (MDA-N): > 100 µM
TGI (NCI-H226 lung): > 100 µM
TGI (NCI-H23 lung): > 100 µM
TGI (NCI-H522 lung): > 100 µM
TGI (NCI/ADR-RES ovarian): > 100 µM
TGI (OVCAR-3 ovarian): > 100 µM
TGI (OVCAR-4 ovarian): > 100 µM
TGI (OVCAR-5 ovarian): > 100 µM
TGI (OVCAR-8 ovarian): > 100 µM
TGI (PC-3 prostate): > 100 µM
TGI (RPMI-8226 leukemia): > 100 µM
TGI (RXF 393 renal): > 100 µM
TGI (SF-295 CNS): > 100 µM
TGI (SF-539 CNS): > 100 µM
TGI (SK-MEL-2 melanoma): > 100 µM
TGI (SK-MEL-28 melanoma): > 100 µM
TGI (SK-MEL-5 melanoma): > 100 µM
TGI (SK-OV-3 ovarian): > 100 µM
TGI (SN12C renal): > 100 µM
TGI (SNB-19 CNS): > 100 µM
TGI (SNB-75 CNS): > 100 µM
TGI (SW-620 colon): > 100 µM
TGI (T-47D breast): > 100 µM
TGI (TK-10 renal): > 100 µM
TGI (U251 CNS): > 100 µM
TGI (UACC-257 melanoma): > 100 µM
TGI (UACC-62 melanoma): > 100 µM
TGI (UO-31 renal): > 100 µM
